Assay results from patent publication US6656911B2, “Serine protease inhibitors” (Cortech, Inc., priority 1994, dated 2003).

Molecular target: T1, elastase derived from human sputum (HSE) (Homo sapiens, UniProt P08246)
T1 construct: prepared from commercially available HSE (875 U/mg protein, SE-563, Elastin Product Co., Inc., Missouri, USA); purchased Elastin Product Co., Inc., Missouri, USA SE-563; host or cells: human sputum (natural enzyme)
T1 sequence (P08246 30-247 limits assumed): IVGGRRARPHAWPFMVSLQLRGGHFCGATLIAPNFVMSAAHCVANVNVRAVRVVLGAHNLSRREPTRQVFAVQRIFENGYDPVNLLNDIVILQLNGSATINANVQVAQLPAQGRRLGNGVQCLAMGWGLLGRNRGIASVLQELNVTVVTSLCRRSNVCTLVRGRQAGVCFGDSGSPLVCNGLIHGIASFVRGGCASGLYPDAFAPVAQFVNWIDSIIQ
Assay: In vitro inhibition of elastase (ONO-PO series)
Assay type: biochemical
Details: substrate N-methoxysuccinyl-Ala-Ala-Pro-Val-p-nitroaniline, 37° C., pH 8.0, IC50 converted to Ki by Dixson plot

Compound | Ki [nM]
CC(C)[C@H](NC(=O)Cn1c(-c2ccccc2)ncc(N)c1=O)C(=O)c1nnc(C2(C)CC2)o1 [ONO-PO-728, 2-[5-Amino-6-oxo-2-phenyl-1,6-dihydro-1-pyrimidinyl]-N-[1-(2-[5-(1-methylcyclopropyl)-1,3,4-oxadiazolyl]carbonyl)-2-(S)-methylpropyl]acetamide] | 8.75
CC(C)[C@H](NC(=O)Cn1c(-c2ccc(F)cc2)ncc(N)c1=O)C(=O)c1nnc(-c2cccnc2)o1 [ONO-PO-695, 2-[5-Amino-6-oxo-2-(4-fluorophenyl)-1,6-dihydro-1-pyrimidinyl]-N-[1-(2-[5-(3-pyridyl)-1,3,4-oxadiazolyl]carbonyl)-2-(S)-methylpropyl]acetamide] | 13.9
COc1ccc(-c2nnc(C(=O)[C@@H](NC(=O)Cn3c(-c4ccc(F)cc4)ncc(N)c3=O)C(C)C)o2)cc1 [ONO-PO-699, 2-[5-Amino-6-oxo-2-(4-fluorophenyl)-1,6-dihydro-1-pyrimidinyl]-N-[1-(2-[5-(4-methoxyphenyl)-1,3,4-oxadiazolyl]carbonyl)-2-(S)-methylpropyl]acetamide] | 21.2
CC(C)[C@H](NC(=O)[C@@H]1CCCN1C(=O)[C@@H](NS(C)(=O)=O)C(C)C)C(=O)c1nnc(C(C)(C)C)o1 [ONO-PO-713] | 12
Cc1cccc(Cc2nnc(C(=O)[C@@H](NC(=O)Cn3c(-c4ccc(F)cc4)ncc(NS(C)(=O)=O)c3=O)C(C)C)o2)c1 [ONO-PO-702, 2-[5-(Methylsulfonyl)amino-6-oxo-2-(4-fluorophenyl)-1,6-dihydro-1-pyrimidinyl]-N-[1-(2-[5-(3-methylbenzyl)-1,3,4-oxadiazolyl]carbonyl)-2-(S)-methylpropyl]acetamide] | 1.78
CC(C)[C@H](NC(=O)CN1C(=O)CN=C(c2ccc(Cl)cc2)c2ccccc21)C(=O)c1nnc(C(C)(C)C)o1 [ONO-PO-717, 2-Oxo-5-(4-chlorophenyl)-1,4-benzodiazepine-N-[1-(2-[5-tert-butyl-1,3,4-oxadiazolyl]carbonyl)-2-(S)-methylpropyl]acetamide] | 57.8
CC(C)[C@H](NC(=O)Cn1c(-c2ccc(F)cc2)ncc(N)c1=O)C(=O)c1nnc(-c2ccccc2)o1 [ONO-PO-694, 2-[5-Amino-6-oxo-2-(4-fluorophenyl)-1,6-dihydro-1-pyrimidinyl]-N-[1-(2-[5-phenyl-1,3,4-oxadiazolyl]carbonyl)-2-(S)-methylpropyl]acetamide] | 24.8
CC(C)[C@H](NC(=O)CN1C(=O)N[C@H](Cc2c[nH]c3ccccc23)C1=O)C(=O)c1nnc(C(C)(C)C)o1 [ONO-PO-723, 4-(R)-(3-Indolemethylene)-2,5-imidazolidinedione-N-[1-(2-[5-tert-butyl-1,3,4-oxadiazolyl]carbonyl)-2-(S)-methylpropyl]acetamide] | 163
Cc1nnc(C(=O)[C@@H](NC(=O)Cn2c(-c3ccc(F)cc3)ncc(N)c2=O)C(C)C)o1 [ONO-PO-704, 2-[5-Amino-6-oxo-2-(4-fluorophenyl)-1,6-dihydro-1-pyrimidinyl]-N-[1-(2-[5-methyl-1,3,4-oxadiazolyl]carbonyl)-2-(S)-methylpropyl]acetamide] | 14
CC(C)[C@H](NC(=O)Cn1c(-c2ccc(F)cc2)ncc(NC(=O)OCc2ccccc2)c1=O)C(=O)c1nnc(C(C)(C)c2ccccc2)o1 [ONO-PO-690, 2-[5-(Benzyloxycarbonyl)amino-6-oxo-2-(4-fluorophenyl)-1,6-dihydro-1-pyrimidinyl]-N-[1-(2-[5-(α,α-dimethylbenzyl)-1,3,4-oxadiazolyl]carbonyl)-2-(S)-methylpropyl]acetamide] | 78.3

More lines, now with the values ahead:

Ki [nM] | Compound
3.35 | CC(C)[C@H](NC(=O)Cn1c(-c2ccc(F)cc2)nccc1=O)C(=O)c1nnc(C(C)(C)c2ccccc2)o1 [ONO-PO-722, 2-[6-Oxo-2-(4-fluorophenyl)-1,6-dihydro-1-pyrimidinyl]-N-[1-(2-[5-(α,α-dimethylbenzyl)-1,3,4-oxadiazolyl]carbonyl)-2-(S)-methylpropyl]acetamide]
26.4 | CC(C)[C@H](NC(=O)Cn1c(-c2ccccc2)nccc1=O)C(=O)c1nnc(C2(C)CC2)o1 [ONO-PO-735, 2-[6-Oxo-2-phenyl-1,6-dihydro-1-pyrimidinyl]-N-[1-(2-[5-(1-methylcyclopropyl)-1,3,4-oxadiazolyl]carbonyl)-2-(S)-methylpropyl]acetamide]
16.6 | CC(C)[C@H](NC(=O)Cn1c(-c2cccnc2)ncc(N)c1=O)C(=O)c1nnc(C(C)(C)C)o1 [ONO-PO-712, 2-[5-Amino-6-oxo-2-(3-pyridyl)-1,6-dihydro-1-pyrimidinyl]-N-[1-(2-[5-tert-butyl-1,3,4-oxadiazolyl]carbonyl)-2-(S)-methylpropyl]acetamide]
23.5 | CC(C)[C@H](NC(=O)Cn1c(-c2ccccc2)nccc1=O)C(=O)c1nnc(C(C)(C)C)o1 [ONO-PO-730, 2-[6-Oxo-2-phenyl-1,6-dihydro-1-pyrimidinyl]-N-[1-(2-[5-tert-butyl-1,3,4-oxadiazolyl]carbonyl)-2-(S)-methylpropyl]acetamide]
36.3 | CC(C)C(NC(=O)Cn1c(-c2ccccc2)nccc1=O)C(=O)c1nnc(C(C)(C)C)o1 (racemic) [ONO-PO-737, 2-[6-Oxo-2-phenyl)-1,6-dihydro-1-pyrimidinyl]-N-[1-(2-[5-tert-butyl-1,3,4-oxadiazolyl]carbonyl)-2-(R,S)-methylpropyl]acetamide]
62.2 | CC(C)[C@@H](NC(=O)Cn1c(-c2ccccc2)nccc1=O)C(=O)c1nnc(C(C)(C)C)o1 [ONO-PO-732, 2-[6-Oxo-2-phenyl-1,6-dihydro-1-pyrimidinyl]-N-[1-(2-[5-tert-butyl-1,3,4-oxadiazolyl]carbonyl)-2-(R)-methylpropyl]acetamide]
